Experimental data taken from patent US6015814A, “Quinazoline derivative” (Zeneca Limited, priority 1995, dated 2000).

Assays:
[1] = target: T1, EGF receptor tyrosine kinase (Homo sapiens, UniProt P00533); assay: in vitro assay, inhibition of EGF receptor tyrosine kinase (test (a)); assay type: biochemical, human (A-431 cells, derived from human vulval carcinoma); settings: approximately
T1 construct: Receptor tyrosine kinase was obtained in partially purified form from A-431 cells; endogenous in cells; host or cells: A-431 cells (human vulval carcinoma)
T1 sequence (P00533 25-1210): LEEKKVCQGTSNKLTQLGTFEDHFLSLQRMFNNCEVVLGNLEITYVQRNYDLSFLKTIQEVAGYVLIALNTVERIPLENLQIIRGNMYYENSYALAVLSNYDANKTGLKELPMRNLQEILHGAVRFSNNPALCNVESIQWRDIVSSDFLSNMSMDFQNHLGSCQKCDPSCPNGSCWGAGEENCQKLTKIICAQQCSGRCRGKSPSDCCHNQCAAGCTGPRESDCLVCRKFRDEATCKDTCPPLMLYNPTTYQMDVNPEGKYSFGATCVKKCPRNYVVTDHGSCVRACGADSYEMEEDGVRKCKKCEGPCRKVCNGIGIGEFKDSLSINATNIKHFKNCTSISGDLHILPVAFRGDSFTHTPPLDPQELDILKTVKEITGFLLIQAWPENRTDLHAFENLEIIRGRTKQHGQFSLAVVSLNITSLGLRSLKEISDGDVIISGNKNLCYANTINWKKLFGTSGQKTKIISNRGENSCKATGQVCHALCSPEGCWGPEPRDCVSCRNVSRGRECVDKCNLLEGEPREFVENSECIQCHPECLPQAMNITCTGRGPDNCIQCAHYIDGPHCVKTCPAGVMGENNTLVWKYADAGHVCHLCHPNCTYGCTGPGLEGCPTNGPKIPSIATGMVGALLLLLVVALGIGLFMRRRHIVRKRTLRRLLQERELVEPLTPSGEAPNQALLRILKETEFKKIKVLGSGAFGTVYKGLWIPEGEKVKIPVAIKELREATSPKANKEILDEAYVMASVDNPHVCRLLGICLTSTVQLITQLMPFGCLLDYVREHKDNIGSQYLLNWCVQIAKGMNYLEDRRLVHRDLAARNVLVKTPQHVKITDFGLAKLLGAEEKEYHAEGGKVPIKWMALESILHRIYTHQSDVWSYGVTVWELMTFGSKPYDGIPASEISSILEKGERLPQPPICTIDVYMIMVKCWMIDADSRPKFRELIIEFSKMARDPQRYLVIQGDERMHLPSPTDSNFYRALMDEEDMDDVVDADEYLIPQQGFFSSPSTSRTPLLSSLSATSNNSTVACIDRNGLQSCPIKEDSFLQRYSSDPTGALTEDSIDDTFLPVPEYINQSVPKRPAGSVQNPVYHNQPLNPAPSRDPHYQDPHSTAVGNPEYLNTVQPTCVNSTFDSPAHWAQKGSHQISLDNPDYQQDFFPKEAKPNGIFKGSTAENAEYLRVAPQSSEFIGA
Method: (a) An in vitro assay which determines the ability of a test compound to inhibit the enzyme EGF receptor tyrosine kinase. Receptor tyrosine kinase was obtained in partially purified form from A-431 cells (derived from human vulval carcinoma) by the procedures described below which are related to those described by Carpenter et al., J. Biol. Chem., 1979. 254, 4884, Cohen et al., J. Biol. Chem., 1982, 257, 1523 and by Braun et al., J. Biol. Chem., 1984, 259, 2051.
A-431 cells were grown to confluence using Dulbecco's modified Eagle's medium (DMEM) containing 5% fetal calf serum (FCS). The obtained cells were homogenised in a hypotonic borate/EDTA buffer at pH 10.1. The homogenate was centrifuged at 400 g for 10 minutes at 0-4° C. The supernatant was centrifuged at 25,000 g for 30 minutes at 0-4° C. […]
The test compound/EGF mixture solution (5 μl) was added to the test enzyme solution (10 μl) and the mixture was incubated at 0-4° C. for 30 minutes. […] Radioactivity present in the filter paper was measured using a liquid scintillation counter (Sequence A). […]
Receptor tyrosine kinase inhibition was calculated as follows: [formula]
The extent of inhibition was then determined at a range of concentrations of test compound to give an IC50 value.

[2] = system: human naso-pharyngeal cancer cell line KB; assay: in vitro assay, inhibition of EGF-stimulated growth of the human naso-pharyngeal cancer cell line KB (test (b)); assay type: cell-based; settings: 72 h, KB cells, 3 days, approximately
Method: (b) An in vitro assay which determines the ability of a test compound to inhibit the EGF-stimulated growth of the human naso-pharyngeal cancer cell line KB.
KB cells were seeded into wells at a density of 1×10^4 -1.5×10^4 cells per well and grown for 24 hours in DMEM supplemented with 5% FCS (charcoal-stripped). Cell growth was determined after incubation for 3 days by the extent of metabolism of MTT tetrazolium dye to furnish a bluish colour. Cell growth was then determined in the presence of EGF (10 ng/ml) or in the presence of EGF (10 ng/ml) and a test compound at a range of concentrations. An ICSO value could then be calculated.

[3] = system: human vulval epidermoid carcinoma cell line A-431; assay: in vivo assay, inhibition of growth of A-431 xenografts in athymic nude mice (test (c)); design: species or system human xenografts in athymic nude mice (strain ONU:Alpk); settings: daily dose of 50 mg/kg; usually oral; relative to untreated controls
Method: (c) An in-vivo assay in a group of athymic nude mice (strain ONU:Alpk) which determines the ability of a test compound (usually administered orally as a ball-milled suspension in 0.5% polysorbate) to inhibit the growth of xenografts of the human vulval epidermoid carcinoma cell line A-431. A-431 cells were maintained in culture in DMEM supplemented with 5% FCS and 2 mM glutamine. Freshly cultured cells were harvested by trypsinization and injected subcutaneously (10 million cells/0.1 ml/mouse) into both flanks of a number of donor nude mice. When sufficient tumour material was available (after approximately 9 to 14 days), fragments of tumour tissue were transplanted in the flanks of recipient nude mice (test day 0). Generally, on the seventh day after transplantation (test day 7) groups of 7 to 10 mice with similar-sized tumours were selected and dosing of the test compound was commenced. Once daily dosing of test compound was continued for a total of 13 days (test days 7 to 19 inclusive). In some studies the dosing of the test compound was continued beyond test day 19, for example to test day 26. In each case, on the following test day the animals were killed and the final tumour volume was calculated from measurements of the length and width of the tumours. Results were calculated as a percentage inhibition of tumour volume relative to untreated controls.

[4] = system: human mammary carcinoma which expresses EGF receptor tyrosine kinase; settings: athymic nude mice; cited from earlier work
[5] = system: another carcinoma which does not express EGF receptor tyrosine kinase; settings: cited from earlier work

IC50 [1]	IC50 [2]	SMILES	inhibition of tumour volume, test (c) [3]	growth of transplanted human mammary carcinoma [4]	growth of another carcinoma [5]
~76 nM	~60 nM	Fc1ccc(Nc2ncnc3ccc(NCCCN4CCCC4)cc23)cc1Cl [Example 1, 4-(3'-chloro-4'-fluoroanilino)-6-[3-(pyrrolidin-1-yl)propylamino]quinazoline]	greater than 50%	–	–
–	–	O=CN/C=C/c1cc(O)ccc1O [erbstatin]	–	specifically attenuates the growth	without effect on the growth
